The values below come from PMC12765074, “Mechanistic insights into enterocin C targeting the undecaprenyl phosphate recycling protein BacA” (The Journal of Biological Chemistry, 2025).

For the assay, the system named is EntC1. The assay is described as follows: ITC, EntC1. Format: binding. Conditions: titration of EntC2 with EntC1. On the technique in general: In ITC the heat of successive injections is recorded.

Molecules are shown by their SMILES.

As for `CC[C@H](C)[C@H](NC(=O)CNC(=O)[C@H](CCCCN)NC(=O)[C@H](C)NC(=O)[C@H](CC(C)C)NC(=O)CNC(=O)[C@H](C)NC(=O)[C@@H](NC(=O)[C@H](Cc1ccccc1)NC(=O)[C@H](CC(=O)O)NC(=O)[C@H](Cc1ccc(O)cc1)NC(=O)[C@H](C)NC(=O)[C@@H]1CCCN1C(=O)[C@H](CCC(N)=O)NC(=O)[C@H](CC(C)C)NC(=O)[C@H](Cc1c[nH]c2ccccc12)NC(=O)[C@@H]1CCCN1C(=O)[C@H](CC(C)C)NC(=O)[C@H](Cc1c[nH]c2ccccc12)NC(=O)[C@H](CCCCN)NC(=O)CNC(=O)[C@@H]1CCCN1C(=O)CN)C(C)C)C(=O)NCC(=O)N[C@@H](CCCCN)C(=O)N[C@@H](CCC(=O)O)C(=O)NCC(=O)N[C@@H](CC(N)=O)C(=O)N[C@@H](CCCCN)C(=O)N[C@@H](CC(N)=O)C(=O)N[C@@H](CCCCN)C(=O)N[C@@H](Cc1c[nH]c2ccccc12)C(=O)N[C@@H](CCCCN)C(=O)N[C@@H](CC(N)=O)C(=O)N[C@H](C(=O)O)C(C)C` (single isomer, unassigned) [EntC2], the “binding to EntC1 (ITC)” value is given as “No binding”.
